Test: refractive index (Na D-line) (dimensionless); xn = mol fraction of the nth substance listed
Conditions: 101 kPa, Liquid, Standard Abbe refractometry

Cc1cc(C)cc(C)c1 [1,3,5-trimethylbenzene] + CCCCOC(C)=O
refractive index
Conditions	293.15 K	298.15 K	303.15 K	308.15 K	313.15 K
x2 = 0.0516	1.49409	1.4916	1.48907	1.48654	1.48399
x2 = 0.1002	1.48903	1.4866	1.48406	1.4816	1.47894
x2 = 0.1506	1.48392	1.48139	1.47885	1.47632	1.47373
x2 = 0.2009	1.4787	1.47618	1.47366	1.47112	1.4686
x2 = 0.2516	1.47339	1.4709	1.46844	1.46589	1.46337
x2 = 0.2995	1.4684	1.46588	1.46345	1.46088	1.45835
x2 = 0.3481	1.46333	1.46081	1.45838	1.4558	1.45332
x2 = 0.3998	1.4579	1.45539	1.45292	1.45039	1.44787
x2 = 0.4499	1.45266	1.45014	1.44772	1.44513	1.44264
x2 = 0.5012	1.44725	1.44474	1.44227	1.43973	1.43728
x2 = 0.5517	1.44194	1.43941	1.43693	1.43441	1.43194
x2 = 0.599	1.43693	1.4344	1.43191	1.42937	1.42693
x2 = 0.6518	1.43134	1.42882	1.42637	1.42379	1.42135
x2 = 0.702	1.42599	1.42348	1.42096	1.41847	1.41604
x2 = 0.7495	1.42089	1.41842	1.41595	1.41342	1.41096
x2 = 0.8007	1.41541	1.41296	1.4105	1.40803	1.40553
x2 = 0.8531	1.40984	1.40738	1.40488	1.40245	1.39998
x2 = 0.8998	1.40482	1.4024	1.39997	1.39751	1.39502
x2 = 0.9494	1.39954	1.3971	1.39467	1.39225	1.38972
